Holding throughout (assay type): physicochemical
A short description of series [1]: Intrinsic dissolution rate. The settings on record: pH 4.5; Form A versus Form B.
The nature of the next series: Aqueous solubility. The settings on record: aqueous medium, aqueous buffer. The method, then:
(§1) The crystalline di-hydrochloride monohydrate salt of 4-(2-((1R,2R)-2-hydroxycyclohexylamino)benzothiazol-6-yloxy)-N-methylpicolinamide (Form A) exists primarily as a crystalline material. Form A is hygroscopic, having a maximum water uptake of about 10.79% at 25° C. and up to 95% relative humidity (RH)). […] Form A has a very low aqueous solubility at neutral pH (about 0.006 mg/mL), however it has a high aqueous solubility at low pH (about >20 mg/mL).

Series [2] in a line: Hygroscopicity (water uptake / exposure to humidity). The method, then: as §1
The nature of series [3]: Bulk physical and chemical stability (degradation under stress conditions). From the text:
Five hydrated forms of the di-hydrochloride salt were identified, which included the crystalline di-hydrochloride monohydrate salt of 4-(2-((1R,2R)-2-hydroxycyclohexylamino)benzothiazol-6-yloxy)-N-methylpicolinamide (Form A) discussed herein.

Structures can show the parent of a compound that is named as a salt. Where two headings read alike, the source gives them in different places.

As to `CNC(=O)c1cc(Oc2ccc3nc(N[C@@H]4CCCC[C@H]4O)sc3c2)ccn1` [Form A, Di-Hydrochloride Monohydrate Salt of 4-(2-((1R,2R)-2-hydroxycyclohexylamino)benzothiazol-6-yloxy)-N-methylpicolinamide], the “intrinsic dissolution rate relative to mono-hydrochloride salt (Form B)” value in series [1] is “about 150 fold”. Further, the solubility in “Aqueous solubility” (low pH, read-out: aqueous solubility at low pH) is > 20000 µg/mL; in “Aqueous solubility” (neutral pH, read-out: aqueous solubility at neutral pH) it was ~6 µg/mL. The maximum water uptake entry in series [2] (25° C., up to 95% relative humidity (RH)) is given as “about 10.79%”. For the same compound, the “phase change on exposure to humidity” value in series [2] (exposure to humidity) is listed as “little to no phase change”. In series [3] (ambient conditions), the “thermodynamic stability compared to the other four hydrated forms” value is on record as “more thermodynamically stable hydrate”. The “degradation of bulk drug substance” value in series [3] (one to two weeks at 50° C., 75% relative humidity) is “less than 1%”; in series [3] (one to two weeks at 50° C., ambient relative humidity) it was “less than 1%”; in series [3] (one week at 80° C., ambient relative humidity), “less than 1%”.

The record behind these values is patent publication US10934273B2, “Crystalline forms of 4-(2-((1R,2R)-2-hydroxycyclohexylamino)benzothiazol-6-yloxy)-N-methylpicolinamide” (Novartis AG, priority 2016, dated 2021).
